# Columns and labels:
# [1] = test system: Jurkat cells; assay: Inhibition of proliferation of Jurkat cells ([…]-GLO, 72 hour); assay type: cell-based; conditions: Homo sapiens
# Method: Representative compounds of the invention were tested at different concentrations (from 10 μM to […]; 0.5 log serial dilutions) for their ability to inhibit the proliferation of Jurkat cells. Cells were grown in RPMI 1640+10% FBS+1% Glutamax supplemented with FBS (Life Technologies) and 100 U.mL^−1 penicillin, 100 μg·mL^−1 streptomycin (Invitrogen) and cultured at 37° C. in a humidified chamber in the presence of 5% CO2. Proliferation assays were conducted over a 72 hour time period. […]-GLO® (Promega Corporation, Madison, Wis. USA) was used to assess the anti-proliferative effects of the compounds following manufacturer's directions and utilizing the reagents supplied with the […]-GLO® kit. In this table, “A” represents an IC50 of less than 500 nM; “B” an IC50 of between 500 nM and 5 μM; and “C” an IC50 of greater than 5 μM.
# [2] = molecular target: T1, JNK2 (Homo sapiens, UniProt P45984); assay: Z'-LYTE kinase assay, JNK2; assay type: biochemical
# T1 construct: purchased Life Technologies (Grand Island, N.Y.), Z'-LYTE kinase assay service
# T1 sequence (P45984 whole entry): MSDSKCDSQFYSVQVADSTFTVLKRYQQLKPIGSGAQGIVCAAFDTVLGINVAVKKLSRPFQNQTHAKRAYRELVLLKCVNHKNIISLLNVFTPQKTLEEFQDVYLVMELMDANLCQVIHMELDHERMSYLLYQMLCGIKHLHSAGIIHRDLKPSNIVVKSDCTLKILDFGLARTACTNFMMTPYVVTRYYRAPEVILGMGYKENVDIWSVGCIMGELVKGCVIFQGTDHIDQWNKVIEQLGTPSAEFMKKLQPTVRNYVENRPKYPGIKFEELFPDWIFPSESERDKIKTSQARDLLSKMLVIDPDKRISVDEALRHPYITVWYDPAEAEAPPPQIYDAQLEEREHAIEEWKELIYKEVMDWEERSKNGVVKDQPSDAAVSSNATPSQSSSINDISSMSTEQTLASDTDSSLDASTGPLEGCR
# Method: (§1) Compounds of the invention were assayed for activity against a variety of different kinases at Life Technologies™ (Grand Island, N.Y.) using their commercially available ADAPTA® (for CDK7, CDK9/cyclin T1, and IRAK1 kinases), Z′-LYTE® (for CDK1, CDK2, CDK5/p25, CDK5/p35, JNK1 and JNK2 kinases) and LANTHASCREEN EU® (for CDK8, CDK9/cyclin K and MLK3) kinase assay services. Test compounds were tested at 100 nM and 1 μM final concentrations in 1% DMSO against all kinases except CDK7. For CDK7, test compounds were tested at concentrations ranging from 10 μM down to 0.514 nM in a series of 3-fold serial dilutions. Details of these assays, including substrates used for each kinase, are available on the Life Technologies web site (www.lifetechnologies.com/). The results of the assay are shown below in Tables 2A and 2B. […] The co-factors used for each kinase in the assays were as follows CDK1—cyclin B; CDK2—cyclin A; CDK5—p25 or p35 as indicated; CDK7—cyclin H and MNAT1; CDK8—cyclin C; CDK9—cyclin K or cyclin T1 as indicated; IRAK1—Histone H3 (1-20) peptide; JNK1—none required; JNK2—none required; MLK3—none required.
# [3] = molecular target: T2, JNK1 (Homo sapiens, UniProt P45983); assay: Z'-LYTE kinase assay, JNK1; assay type: biochemical
# T2 construct: purchased Life Technologies (Grand Island, N.Y.), Z'-LYTE kinase assay service
# T2 sequence (P45983 whole entry): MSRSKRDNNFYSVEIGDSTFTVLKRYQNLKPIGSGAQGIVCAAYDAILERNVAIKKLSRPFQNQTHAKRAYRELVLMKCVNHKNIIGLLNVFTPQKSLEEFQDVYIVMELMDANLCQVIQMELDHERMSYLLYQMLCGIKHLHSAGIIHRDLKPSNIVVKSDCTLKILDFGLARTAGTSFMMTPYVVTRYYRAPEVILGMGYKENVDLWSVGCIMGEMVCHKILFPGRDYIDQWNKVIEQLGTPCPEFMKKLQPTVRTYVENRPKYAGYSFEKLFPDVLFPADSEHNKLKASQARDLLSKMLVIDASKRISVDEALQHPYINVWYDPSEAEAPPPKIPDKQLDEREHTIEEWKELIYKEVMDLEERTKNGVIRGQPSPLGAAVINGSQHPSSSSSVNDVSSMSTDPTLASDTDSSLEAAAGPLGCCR
# Method: as §1
# [4] = molecular target: T3, CDK5/p25 (Homo sapiens, UniProt Q00535); assay: Z'-LYTE kinase assay, CDK5/p25; assay type: biochemical
# T3 construct: purchased Life Technologies (Grand Island, N.Y.), Z'-LYTE kinase assay service
# T3 sequence (Q00535 whole entry): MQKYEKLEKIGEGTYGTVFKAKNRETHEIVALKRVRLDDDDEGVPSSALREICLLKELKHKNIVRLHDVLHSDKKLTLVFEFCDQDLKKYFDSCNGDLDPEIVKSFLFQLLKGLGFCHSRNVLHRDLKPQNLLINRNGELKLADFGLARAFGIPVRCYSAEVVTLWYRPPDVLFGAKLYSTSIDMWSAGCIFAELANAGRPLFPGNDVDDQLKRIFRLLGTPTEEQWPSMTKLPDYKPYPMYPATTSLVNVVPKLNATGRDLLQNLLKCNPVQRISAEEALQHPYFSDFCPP
# T3 sequence (Q15078 99-307 partner limits assumed): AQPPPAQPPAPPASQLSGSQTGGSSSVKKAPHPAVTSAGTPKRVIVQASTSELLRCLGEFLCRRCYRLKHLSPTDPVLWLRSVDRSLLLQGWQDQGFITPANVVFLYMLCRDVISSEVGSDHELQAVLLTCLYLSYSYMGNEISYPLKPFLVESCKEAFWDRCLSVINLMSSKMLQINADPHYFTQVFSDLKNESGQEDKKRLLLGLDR
# Method: as §1
# [5] = molecular target: T4, CDK8 (Homo sapiens, UniProt P49336); assay: LANTHASCREEN EU kinase assay, CDK8; assay type: binding; conditions: cyclin C co-factor
# T4 construct: purchased Life Technologies (Grand Island, N.Y.), LA[…] kinase assay service
# T4 sequence (P49336 whole entry): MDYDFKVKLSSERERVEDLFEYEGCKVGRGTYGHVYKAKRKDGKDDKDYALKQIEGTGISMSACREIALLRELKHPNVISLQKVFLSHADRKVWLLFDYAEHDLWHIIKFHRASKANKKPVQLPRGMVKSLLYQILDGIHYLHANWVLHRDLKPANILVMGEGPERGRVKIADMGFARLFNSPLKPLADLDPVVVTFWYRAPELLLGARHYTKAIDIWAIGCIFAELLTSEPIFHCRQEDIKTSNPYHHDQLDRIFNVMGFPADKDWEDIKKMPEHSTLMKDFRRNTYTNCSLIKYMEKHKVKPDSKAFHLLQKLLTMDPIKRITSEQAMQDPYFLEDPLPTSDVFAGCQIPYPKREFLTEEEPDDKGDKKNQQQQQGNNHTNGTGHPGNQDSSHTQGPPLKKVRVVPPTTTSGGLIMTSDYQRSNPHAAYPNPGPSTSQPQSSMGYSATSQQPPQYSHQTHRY
# T4 sequence (P24863 whole entry partner): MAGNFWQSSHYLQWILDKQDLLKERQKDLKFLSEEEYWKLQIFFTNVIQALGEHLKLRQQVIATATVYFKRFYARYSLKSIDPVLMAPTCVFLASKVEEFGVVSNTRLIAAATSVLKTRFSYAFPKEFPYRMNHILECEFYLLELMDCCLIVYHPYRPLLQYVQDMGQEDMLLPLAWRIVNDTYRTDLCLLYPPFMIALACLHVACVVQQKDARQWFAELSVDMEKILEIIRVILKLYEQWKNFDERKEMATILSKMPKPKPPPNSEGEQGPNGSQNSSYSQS
# Method: as §1
# [6] = molecular target: T5, CDK9/cyclin T1 (Homo sapiens, UniProt P50750); assay: ADAPTA kinase assay, CDK9/cyclin T1; assay type: biochemical; conditions: cyclin T1 co-factor
# T5 construct: purchased Life Technologies (Grand Island, N.Y.), ADAPTA kinase assay service
# Method: as §1
# [7] = molecular target: T6, CDK1 (Homo sapiens, UniProt P06493); assay: Z'-LYTE kinase assay, CDK1; assay type: biochemical; conditions: cyclin B co-factor
# T6 construct: purchased Life Technologies (Grand Island, N.Y.), Z'-LYTE kinase assay service
# T6 sequence (P06493 whole entry): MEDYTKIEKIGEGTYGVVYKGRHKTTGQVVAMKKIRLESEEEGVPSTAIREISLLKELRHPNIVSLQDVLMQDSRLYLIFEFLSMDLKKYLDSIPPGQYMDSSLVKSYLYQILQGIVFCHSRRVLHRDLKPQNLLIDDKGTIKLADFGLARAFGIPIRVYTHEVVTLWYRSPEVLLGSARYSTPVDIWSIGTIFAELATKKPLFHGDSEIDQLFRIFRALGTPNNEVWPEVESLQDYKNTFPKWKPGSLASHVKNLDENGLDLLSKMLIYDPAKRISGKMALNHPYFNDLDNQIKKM
# T6 sequence (P14635 whole entry partner): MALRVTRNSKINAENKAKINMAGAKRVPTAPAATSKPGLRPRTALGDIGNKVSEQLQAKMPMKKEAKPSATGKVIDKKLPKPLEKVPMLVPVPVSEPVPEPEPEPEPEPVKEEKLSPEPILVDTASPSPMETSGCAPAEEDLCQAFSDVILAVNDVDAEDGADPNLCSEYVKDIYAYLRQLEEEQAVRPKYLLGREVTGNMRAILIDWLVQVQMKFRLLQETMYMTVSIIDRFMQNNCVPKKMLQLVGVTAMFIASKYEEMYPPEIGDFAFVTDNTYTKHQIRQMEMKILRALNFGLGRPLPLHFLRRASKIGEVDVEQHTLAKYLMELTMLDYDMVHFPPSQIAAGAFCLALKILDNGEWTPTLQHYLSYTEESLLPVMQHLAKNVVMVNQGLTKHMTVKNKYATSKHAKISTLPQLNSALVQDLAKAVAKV
# Method: as §1
# [8] = molecular target: T7, CDK7 (Homo sapiens, UniProt P50613); assay: ADAPTA kinase assay, CDK7 (Life Technologies); assay type: biochemical; conditions: co-factors cyclin H and MNAT1; 10 μM down to 0.514 nM, 3-fold serial dilutions; read-out: CDK7 calculated IC50
# T7 construct: purchased Life Technologies (Grand Island, N.Y.), ADAPTA kinase assay service
# T7 sequence (P50613 whole entry): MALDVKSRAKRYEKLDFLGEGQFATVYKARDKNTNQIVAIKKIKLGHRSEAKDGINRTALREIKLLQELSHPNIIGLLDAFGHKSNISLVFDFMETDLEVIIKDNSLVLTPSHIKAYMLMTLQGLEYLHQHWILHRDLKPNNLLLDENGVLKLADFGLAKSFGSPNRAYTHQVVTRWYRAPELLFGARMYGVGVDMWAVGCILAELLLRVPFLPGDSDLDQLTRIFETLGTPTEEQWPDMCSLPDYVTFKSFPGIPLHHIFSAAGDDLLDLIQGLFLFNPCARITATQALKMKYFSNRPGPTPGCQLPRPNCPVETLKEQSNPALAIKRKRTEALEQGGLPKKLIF
# T7 sequence (P51946 whole entry partner): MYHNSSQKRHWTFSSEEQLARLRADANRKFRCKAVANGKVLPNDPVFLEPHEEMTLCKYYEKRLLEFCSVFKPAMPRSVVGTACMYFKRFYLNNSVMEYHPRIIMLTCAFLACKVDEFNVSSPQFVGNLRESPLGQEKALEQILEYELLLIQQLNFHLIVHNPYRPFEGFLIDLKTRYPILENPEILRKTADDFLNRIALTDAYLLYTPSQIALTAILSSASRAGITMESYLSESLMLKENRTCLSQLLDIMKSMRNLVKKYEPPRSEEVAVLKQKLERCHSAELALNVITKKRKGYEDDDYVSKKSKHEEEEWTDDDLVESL
# T7 sequence (P51948 whole entry partner): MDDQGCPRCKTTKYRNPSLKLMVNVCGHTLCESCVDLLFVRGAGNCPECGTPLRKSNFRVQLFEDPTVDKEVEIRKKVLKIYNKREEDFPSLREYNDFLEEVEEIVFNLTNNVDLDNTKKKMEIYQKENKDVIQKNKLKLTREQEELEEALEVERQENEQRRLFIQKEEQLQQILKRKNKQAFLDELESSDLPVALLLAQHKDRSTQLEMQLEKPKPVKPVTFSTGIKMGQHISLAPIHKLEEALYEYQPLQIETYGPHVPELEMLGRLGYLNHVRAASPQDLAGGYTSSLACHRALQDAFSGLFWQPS
# Method: Test compounds were tested at 100 nM and 1 μM final concentrations in 1% DMSO against all kinases except CDK7. For CDK7, test compounds were tested at concentrations ranging from 10 μM down to 0.514 nM in a series of 3-fold serial dilutions. […] The co-factors used for each kinase in the assays were as follows CDK1—cyclin B; CDK2—cyclin A; CDK5—p25 or p35 as indicated; CDK7—cyclin H and MNAT1; CDK8—cyclin C; CDK9—cyclin K or cyclin T1 as indicated; IRAK1—Histone H3 (1-20) peptide; JNK1—none required; JNK2—none required; MLK3—none required.
# [9] = molecular target: T8, CDK9/cyclin K (Homo sapiens, UniProt P50750); assay: LANTHASCREEN EU kinase assay, CDK9/cyclin K; assay type: binding; conditions: cyclin K co-factor
# T8 construct: purchased Life Technologies (Grand Island, N.Y.), LANTHASCREEN EU kinase assay service
# Method: as §1
# [10] = molecular target: T9, CDK5/p35 (Homo sapiens, UniProt Q00535); assay: Z'-LYTE kinase assay, CDK5/p35; assay type: biochemical; conditions: p35 co-factor
# T9 construct: purchased Life Technologies (Grand Island, N.Y.), Z'-LYTE kinase assay service
# T9 sequence (Q00535 whole entry): as the sequence (Q00535 whole entry) above
# T9 sequence (Q15078 whole entry partner): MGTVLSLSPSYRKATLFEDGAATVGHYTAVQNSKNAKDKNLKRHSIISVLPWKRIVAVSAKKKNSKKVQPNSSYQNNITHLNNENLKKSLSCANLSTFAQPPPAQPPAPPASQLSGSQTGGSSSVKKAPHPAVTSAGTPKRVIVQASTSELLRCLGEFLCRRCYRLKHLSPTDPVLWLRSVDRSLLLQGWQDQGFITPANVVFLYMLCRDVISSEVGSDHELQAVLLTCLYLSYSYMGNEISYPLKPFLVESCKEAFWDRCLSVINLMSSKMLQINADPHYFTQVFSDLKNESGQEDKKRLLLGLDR
# Method: as §1
# [11] = molecular target: T10, CDK2 (Homo sapiens, UniProt P24941); assay: Z'-LYTE kinase assay, CDK2; assay type: biochemical; conditions: cyclin A co-factor
# T10 construct: purchased Life Technologies (Grand Island, N.Y.), Z'-LYTE kinase assay service
# Method: as §1
# [12] = molecular target: T11, MLK3 (Homo sapiens, UniProt Q16584); assay: LANTHASCREEN EU kinase assay, MLK3; assay type: binding; conditions: calculated; read-out: C50 against MLK3
# T11 construct: purchased Life Technologies (Grand Island, N.Y.), LA[…] kinase assay service
# Method: as §1, with “Test compounds were tested at 100 nM and 1 μM final concentrations in 1% DMSO against all kinases except CDK7.” left out
smiles,measurement,setting,value
"CN(C)C/C=C/C(=O)Nc1ccc(C(=O)N2CCCC(CNc3ncc(Cl)c(-c4c[nH]c5ccccc45)n3)C2)cc1 (stereo not drawn) [Compound 101, (E)-N-(4-(3-((5-chloro-4-(1H-indol-3-yl)pyrimidin-2-ylamino)methyl)piperidine-1-carbonyl)phenyl)-4-(dimethylamino)but-2-enamide]",IC50,[1],0.5 to 5 µM
same,inhibition at 0.1 µM,[2]; compound tested at 100 nM,< 50%
same,inhibition at 1 µM,[2]; compound tested at 1 μM,> 70%
same,inhibition at 0.1 µM,[3]; compound tested at 100 nM,50 to 70%
same,inhibition at 1 µM,[3]; compound tested at 1 μM,> 70%
same,inhibition at 0.1 µM,"[4]; compound tested at 100 nM, p25 co-factor",< 50%
same,inhibition at 1 µM,"[4]; compound tested at 1 μM, p25 co-factor",< 50%
same,inhibition at 0.1 µM,[5]; compound tested at 100 nM,< 50%
same,inhibition at 1 µM,[5]; compound tested at 1 μM,< 50%
same,inhibition at 0.1 µM,[6]; compound tested at 100 nM,< 50%
same,inhibition at 1 µM,[6]; compound tested at 1 μM,< 50%
same,inhibition at 0.1 µM,[7]; compound tested at 100 nM,< 50%
same,inhibition at 1 µM,[7]; compound tested at 1 μM,< 50%
same,IC50,[8],0.1 to 1 µM
same,inhibition at 0.1 µM,[9]; compound tested at 100 nM,< 50%
same,inhibition at 1 µM,[9]; compound tested at 1 μM,< 50%
same,inhibition at 0.1 µM,[10]; compound tested at 100 nM,< 50%
same,inhibition at 1 µM,[10]; compound tested at 1 μM,< 50%
same,inhibition at 0.1 µM,[11]; compound tested at 100 nM,< 50%
same,inhibition at 1 µM,[11]; compound tested at 1 μM,< 50%
"CN(C)C/C=C/C(=O)Nc1ccc(C(=O)N2CCCC(Nc3ncc(Cl)c(-c4c[nH]c5ccccc45)n3)C2)cc1 (stereo not drawn) [Compound 100, (E)-N-(4-(3-(5-chloro-4-(1H-indol-3-yl)pyrimidin-2-ylamino)piperidine-1-carbonyl)phenyl)-4-(dimethylamino)but-2-enamide]",IC50,[1],< 0.5 µM
same,IC50,"[4]; p25 as co-factor, calculated, read-out: IC50 against CDK5",3 µM
same,IC50,[12],3.2 µM
CN(C)C/C=C/C(=O)Nc1ccc(NC(=O)N2CCCC(Nc3ncc(Cl)c(-c4c[nH]c5ccccc45)n3)C2)cc1 (stereo not drawn) [Compound 102],IC50,[8],0.1 to 1 µM

# — patent publication US11040957B2, “Heteroaromatic compounds useful for the treatment of proliferative diseases” (Syros Pharmaceuticals, Inc., priority 2013, dated 2021)
